Where a name gives a salt, the structure may show the parent alone. Read-outs that look alike come from different tables or passages of the source.
Legend:
[1] = biological target: T1, EGFR (L858R T790M C797S) (Homo sapiens, UniProt P00533, C797S/L858R/T790M); test: Biochemical EGFR inhibition assay (Caliper mobility shift), EGFR LRTMCS
T1 construct: purchased SignalChem E10-122VG
Experimental: Reactions proceeded until between 10% to 20% total peptides were phosphorylated at room temperature (25° C.) and were terminated with 35 mM 2,2′,2″,2′″-(ethane-1,2-diyldinitrilo)tetraacetic acid (EDTA). Product was detected using the Caliper mobility shift detection method where the phosphorylated peptide (product) and substrate were electrophoretically separated and measured. Percent activity was plotted against log concentration of compound and points to generate an apparent IC50.

[2] = biological target: T2, intracellular phosphorylation of EGFR in NCI-H1975 cell line that harbors the EGFR L858R T790M mutations (Homo sapiens, UniProt P00533, L858R/T790M); test: NCI-H1975 pEGFR AlphaLISA assay; type: cell-based; details: NCI-H1975 cells (EGFR L858R T790M), p-EGFR (Tyr1068), 4-5 hours incubation; read-out: Ext pEGFR H1975 GMean IC50 (nM) Protocol: @Pharmaron AlphaLISA (Num)
T2 construct: NCI-H1975 cell line that harbors the EGFR L858R T790M mutations (ATCC, CRL-5908); host or cells: NCI-H1975
Experimental: On the next day, the test compounds and DMSO control were added into H1975 cell plate followed by incubation at 37C/5% CO2 for 4-5 hours. […] Then 5 μL of a donor bead mix was added to each well followed by overnight incubation at room temperature in dark. On the next day, the plate was read at a compatible plate reader to obtain pEGFR signal. Percent of pEGFR inhibition was plotted against log concentration of compounds to generate IC50 values.

[3] = LRTMCS (PH) IC50 (nM) @ 1 mM ATP (Num), EGFR LRTMCS mutant

T2 sequence (P00533 25-1210 T790M/L858R): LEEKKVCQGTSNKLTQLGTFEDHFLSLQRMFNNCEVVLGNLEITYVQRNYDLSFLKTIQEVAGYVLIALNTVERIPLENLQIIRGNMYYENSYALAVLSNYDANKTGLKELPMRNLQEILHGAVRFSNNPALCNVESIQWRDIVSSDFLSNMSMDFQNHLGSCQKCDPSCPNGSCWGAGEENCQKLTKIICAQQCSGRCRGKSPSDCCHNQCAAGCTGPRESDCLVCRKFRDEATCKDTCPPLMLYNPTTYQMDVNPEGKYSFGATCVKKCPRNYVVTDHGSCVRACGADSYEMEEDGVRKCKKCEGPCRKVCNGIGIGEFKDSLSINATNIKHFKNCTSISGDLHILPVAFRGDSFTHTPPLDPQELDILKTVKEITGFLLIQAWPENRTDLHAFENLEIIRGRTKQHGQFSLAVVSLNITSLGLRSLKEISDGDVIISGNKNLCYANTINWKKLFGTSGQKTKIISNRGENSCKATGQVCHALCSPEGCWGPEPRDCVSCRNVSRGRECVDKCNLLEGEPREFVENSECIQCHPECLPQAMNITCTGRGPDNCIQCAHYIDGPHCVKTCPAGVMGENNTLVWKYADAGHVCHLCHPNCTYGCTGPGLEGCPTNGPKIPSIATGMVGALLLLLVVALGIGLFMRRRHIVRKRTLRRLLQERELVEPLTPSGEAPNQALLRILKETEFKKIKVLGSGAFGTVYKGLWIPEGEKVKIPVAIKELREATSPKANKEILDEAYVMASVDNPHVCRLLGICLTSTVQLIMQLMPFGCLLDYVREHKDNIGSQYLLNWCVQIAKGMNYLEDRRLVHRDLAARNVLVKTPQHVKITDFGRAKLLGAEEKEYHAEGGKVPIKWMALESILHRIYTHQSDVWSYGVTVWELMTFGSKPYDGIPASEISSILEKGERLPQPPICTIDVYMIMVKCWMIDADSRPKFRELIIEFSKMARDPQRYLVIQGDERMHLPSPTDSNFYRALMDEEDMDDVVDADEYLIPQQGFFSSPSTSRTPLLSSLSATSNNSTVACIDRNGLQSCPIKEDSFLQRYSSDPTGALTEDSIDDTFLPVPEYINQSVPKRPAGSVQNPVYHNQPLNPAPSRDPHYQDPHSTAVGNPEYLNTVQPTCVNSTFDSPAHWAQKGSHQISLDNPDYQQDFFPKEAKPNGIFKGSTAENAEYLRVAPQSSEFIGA
T1 sequence (P00533 25-1210 T790M/C797S/L858R): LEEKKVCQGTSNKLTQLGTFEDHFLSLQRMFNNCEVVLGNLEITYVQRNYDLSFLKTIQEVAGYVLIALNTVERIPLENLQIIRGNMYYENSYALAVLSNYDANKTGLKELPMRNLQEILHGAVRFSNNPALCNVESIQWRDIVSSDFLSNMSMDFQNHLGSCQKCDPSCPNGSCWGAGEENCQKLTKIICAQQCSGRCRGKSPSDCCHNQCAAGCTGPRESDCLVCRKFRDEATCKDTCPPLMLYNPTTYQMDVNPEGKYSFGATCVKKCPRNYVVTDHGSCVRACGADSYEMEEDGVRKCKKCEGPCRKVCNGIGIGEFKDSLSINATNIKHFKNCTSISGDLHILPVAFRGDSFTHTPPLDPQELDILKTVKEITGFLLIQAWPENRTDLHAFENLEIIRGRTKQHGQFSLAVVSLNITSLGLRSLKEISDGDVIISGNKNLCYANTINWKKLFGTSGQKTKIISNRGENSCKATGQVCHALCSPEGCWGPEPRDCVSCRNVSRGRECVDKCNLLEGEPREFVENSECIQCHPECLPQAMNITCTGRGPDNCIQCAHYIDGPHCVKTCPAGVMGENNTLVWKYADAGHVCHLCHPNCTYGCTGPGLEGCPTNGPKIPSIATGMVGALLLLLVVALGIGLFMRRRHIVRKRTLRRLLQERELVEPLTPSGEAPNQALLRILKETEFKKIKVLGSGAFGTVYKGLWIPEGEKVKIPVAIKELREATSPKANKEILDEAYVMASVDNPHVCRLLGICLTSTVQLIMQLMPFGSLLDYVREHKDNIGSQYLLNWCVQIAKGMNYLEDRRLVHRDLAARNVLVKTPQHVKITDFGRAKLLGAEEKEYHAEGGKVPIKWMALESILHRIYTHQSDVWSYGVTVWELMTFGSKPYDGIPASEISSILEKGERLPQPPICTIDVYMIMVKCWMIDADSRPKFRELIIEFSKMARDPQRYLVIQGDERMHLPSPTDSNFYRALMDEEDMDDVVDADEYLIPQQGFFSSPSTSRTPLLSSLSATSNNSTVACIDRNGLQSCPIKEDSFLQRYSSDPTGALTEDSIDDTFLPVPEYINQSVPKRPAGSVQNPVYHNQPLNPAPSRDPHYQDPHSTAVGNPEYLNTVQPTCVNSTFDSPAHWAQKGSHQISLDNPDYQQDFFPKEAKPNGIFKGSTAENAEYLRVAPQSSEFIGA

Row | Compound | IC50 [1, 3] | IC50 [2] | IC50 ([1]; read-out: LRTMCS (PH) IC50 (nM) @ 1 mM ATP (Num), EGFR LRTMCS mutant)
1 | CO[C@H]1CCN(c2nccc(Nc3cc4c(C(C)C)cnc(N5CCC56CN(C)C6)c4cn3)n2)C[C@H]1F [Example 42, N-(2-((3R,4S)-3-fluoro-4-methoxypiperidin-1-yl)pyrimidin-4-yl)-5-isopropyl-8-(6-methyl-1,6-diazaspiro[3.3]heptan-1-yl)-2,7-naphthyridin-3-amine] | 20 to 30 nM | > 50 nM | –
2 | CC(C)c1ccc(N2CC3(CCS3(=O)=O)C2)c2cnc(Nc3ccnc(N4CC[C@@H](O)[C@@](C)(F)C4)n3)cc12 [Example 35, 6-(3-((2-((3S,4R)-3-fluoro-4-hydroxy-3-methylpiperidin-1-yl)pyrimidin-4-yl)amino)-5-isopropylisoquinolin-8-yl)-1-thia-6-azaspiro[3.3]heptane 1,1-dioxide] | < 15 nM | < 10 nM | –
3 | CC(C)c1cnc(N2CC(n3ccnc3)C2)c2cnc(Nc3ccnc(N4CC[C@@H](O)[C@@](C)(F)C4)n3)cc12 [Example 219, (3S,4R)-1-(4-((8-(3-(1H-imidazol-1-yl)azetidin-1-yl)-5-isopropyl-2,7-naphthyridin-3-yl)amino)pyrimidin-2-yl)-3-fluoro-3-methylpiperidin-4-ol] | 20 to 30 nM | > 50 nM | –
4 | CC(C)c1cnc(N2CC(C[S+]([O-])C(F)(F)F)C2)c2cnc(Nc3ccnc(N4CC[C@@H](O)[C@@](C)(F)C4)n3)cc12 (stereo partly drawn) [Example 100, (3S,4R)-3-fluoro-1-(4-((5-isopropyl-8-(3-(((trifluoromethyl)sulfinyl)methyl)azetidin-1-yl)-2,7-naphthyridin-3-yl)amino)pyrimidin-2-yl)-3-methylpiperidin-4-ol] | < 15 nM | 10 to 20 nM | –
5 | CC(C)c1cnc(N2CC(CP(C)(C)=O)C2)c2cnc(Nc3ccnc(N4CC[C@@H](O)[C@@](C)(F)C4)n3)cc12 [Example 79, ((1-(6-((2-((3S,4R)-3-fluoro-4-hydroxy-3-methylpiperidin-1-yl)pyrimidin-4-yl)amino)-4-isopropyl-2,7-naphthyridin-1-yl)azetidin-3-yl)methyl)dimethylphosphine oxide] | 30 to 100 nM | > 50 nM | –
6 | CC(C)c1cnc(-c2ncn(C)n2)c2cnc(Nc3ccnc(N4CC[C@@H](O)[C@@](C)(F)C4)n3)cc12 [Example 15, (3S,4R)-3-fluoro-1-(4-((5-isopropyl-8-(1-methyl-1H-1,2,4-triazol-3-yl)-2,7-naphthyridin-3-yl)amino)pyrimidin-2-yl)-3-methylpiperidin-4-ol] | < 15 nM | > 50 nM | –
7 | CC(C)c1ccc(N2C[C@H](O)[C@H]2C)c2cnc(Nc3ccnc(N4CC[C@@H](O)[C@@](C)(F)C4)n3)cc12 [Example 103, (3S,4R)-3-fluoro-1-(4-((8-((2R,3S)-3-hydroxy-2-methylazetidin-1-yl)-5-isopropylisoquinolin-3-yl)amino)pyrimidin-2-yl)-3-methylpiperidin-4-ol] | < 15 nM | 10 to 20 nM | –
8 | CC(C)c1cnc(N2CC3(CCS3(=O)=O)C2)c2cnc(Nc3ccnc(N4CC[C@@H](O)[C@@](C)(F)C4)n3)cc12 [Example 98, 6-(6-((2-((3S,4R)-3-fluoro-4-hydroxy-3-methylpiperidin-1-yl)pyrimidin-4-yl)amino)-4-isopropyl-2,7-naphthyridin-1-yl)-1-thia-6-azaspiro[3.3]heptane 1,1-dioxide] | < 15 nM | 10 to 20 nM | –
9 | C[C@@H]1CCN1c1ncc([C@@H]2CCOC2)c2cc(Nc3ccnc(N4CC[C@@H](O)[C@@H](F)C4)n3)ncc12 (single isomer, unassigned) [Example 162, (3S,4R)-3-fluoro-1-(4-((8-((R)-2-methylazetidin-1-yl)-5-((S)-tetrahydrofuran-3-yl)-2,7-naphthyridin-3-yl)amino)pyrimidin-2-yl)piperidin-4-ol or (3S,4R)-3-fluoro-1-(4-((8-((R)-2-methylazetidin-1-yl)-5-((R)-tetrahydrofuran-3-yl)-2,7-naphthyridin-3-yl)amino)pyrimidin-2-yl)piperidin-4-ol] | < 15 nM | 30 to 50 nM | –
10 | CC(C)c1cnc(-c2cnn(C)c2CN(C)C)c2cnc(Nc3ccnc(N4CC[C@@H](O)[C@@](C)(F)C4)n3)cc12 [Example 13, (3S,4R)-1-(4-((8-(5-((dimethylamino)methyl)-1-methyl-1H-pyrazol-4-yl)-5-isopropyl-2,7-naphthyridin-3-yl)amino)pyrimidin-2-yl)-3-fluoro-3-methylpiperidin-4-ol trifluoroacetate] | 30 to 100 nM | > 50 nM | –
11 | C[C@H](c1cnc(N2CC[C@H]2C)c2cnc(Nc3ccnc(N4CC[C@@H](O)[C@@](C)(F)C4)n3)cc12)C1COC1 (single isomer, unassigned) [Example 177, (3S,4R)-3-fluoro-3-methyl-1-(4-((8-((R)-2-methylazetidin-1-yl)-5-((S)-1-(oxetan-3-yl)ethyl)-2,7-naphthyridin-3-yl)amino)pyrimidin-2-yl)piperidin-4-ol or (3S,4R)-3-fluoro-3-methyl-1-(4-((8-((R)-2-methylazetidin-1-yl)-5-((R)-1-(oxetan-3-yl)ethyl)-2,7-naphthyridin-3-yl)amino)pyrimidin-2-yl)piperidin-4-ol] | – | 20 to 30 nM | < 15 nM
12 | CO[C@@H]1CCN(c2nccc(Nc3cc4c(C(C)C)ncc(N5CC(C(=O)N(C)C)C5)c4cn3)n2)C[C@@H]1O (single isomer, unassigned) [Example 121, 1-(7-((2-((3S,4R)-3-hydroxy-4-methoxypiperidin-1-yl)pyrimidin-4-yl)amino)-1-isopropyl-2,6-naphthyridin-4-yl)-N,N-dimethylazetidine-3-carboxamide or 1-(7-((2-((3R,4S)-3-hydroxy-4-methoxypiperidin-1-yl)pyrimidin-4-yl)amino)-1-isopropyl-2,6-naphthyridin-4-yl)-N,N-dimethylazetidine-3-carboxamide] | 30 to 100 nM | > 50 nM | –
13 | C[C@@H]1[C@H](F)CN1c1ncc([C@@H](C)CO)c2cc(Nc3ccnc(N4CC[C@@H](O)[C@@](C)(F)C4)n3)ncc12 (single isomer, unassigned) [Example 209, (3S,4R)-3-fluoro-1-(4-((8-((2R,3R)-3-fluoro-2-methylazetidin-1-yl)-5-((R)-1-hydroxypropan-2-yl)-2,7-naphthyridin-3-yl)amino)pyrimidin-2-yl)-3-methylpiperidin-4-ol or (3S,4R)-3-fluoro-1-(4-((8-((2R,3R)-3-fluoro-2-methylazetidin-1-yl)-5-((S)-1-hydroxypropan-2-yl)-2,7-naphthyridin-3-yl)amino)pyrimidin-2-yl)-3-methylpiperidin-4-ol] | 15 to 20 nM | > 50 nM | –
14 | CC(C)c1cnc(N2C[C@H](O)[C@H]2C)c2cnc(Nc3ccnc(N4C[C@@H](F)[C@@H](O)C(C)(C)C4)n3)cc12 (single isomer, unassigned) [Example 145, (4S,5R)-5-fluoro-1-(4-((8-((2R,3S)-3-hydroxy-2-methylazetidin-1-yl)-5-isopropyl-2,7-naphthyridin-3-yl)amino)pyrimidin-2-yl)-3,3-dimethylpiperidin-4-ol or (4R,5S)-5-fluoro-1-(4-((8-((2R,3S)-3-hydroxy-2-methylazetidin-1-yl)-5-isopropyl-2,7-naphthyridin-3-yl)amino)pyrimidin-2-yl)-3,3-dimethylpiperidin-4-ol] | < 15 nM | 20 to 30 nM | –
15 | Cc1c(-c2ncc(C(C)C)c3cc(Nc4ccnc(N5CC[C@@H](O)[C@@](C)(F)C5)n4)ncc23)nnn1C [Example 17, (3S,4R)-1-(4-((8-(1,5-dimethyl-1H-1,2,3-triazol-4-yl)-5-isopropyl-2,7-naphthyridin-3-yl)amino)pyrimidin-2-yl)-3-fluoro-3-methylpiperidin-4-ol] | < 15 nM | 10 to 20 nM | –
16 | CC(C)c1cnc(N2CCC[C@H]2CN(C)C)c2cnc(Nc3ccnc(N4CC[C@@H](O)[C@@](C)(F)C4)n3)cc12 [Example 115, (3S,4R)-1-(4-((8-((S)-2-((dimethylamino)methyl)pyrrolidin-1-yl)-5-isopropyl-2,7-naphthyridin-3-yl)amino)pyrimidin-2-yl)-3-fluoro-3-methylpiperidin-4-ol] | 30 to 100 nM | 30 to 50 nM | –
17 | CC(C)c1cnc(N2C[C@H](O)[C@H]2C)c2cnc(Nc3ccnc(N4CCC(C)(O)CC4)n3)cc12 [Example 128, 1-(4-((8-((2R,3S)-3-hydroxy-2-methylazetidin-1-yl)-5-isopropyl-2,7-naphthyridin-3-yl)amino)pyrimidin-2-yl)-4-methylpiperidin-4-ol] | < 15 nM | > 50 nM | –
18 | COC(=O)N1CC2(CCN2c2ncc(C(C)C)c3cc(Nc4ccnc(N5CC[C@@H](O)[C@@](C)(F)C5)n4)ncc23)C1 [Example 82, methyl 1-(6-((2-((3S,4R)-3-fluoro-4-hydroxy-3-methylpiperidin-1-yl)pyrimidin-4-yl)amino)-4-isopropyl-2,7-naphthyridin-1-yl)-1,6-diazaspiro[3.3]heptane-6-carboxylate] | 15 to 20 nM | 30 to 50 nM | –
